US20240016769A1, “Method for preparing compound or biological drug enhancing CNPase activity for treating heart diseases” (ZHUHAI YUANZHI HEALTH TECH CO. LTD., priority 2020, published 2024)

Test system: CNPase
Experiment: CNPase enzyme activity in Ang-II induced cardiac hypertrophy cells
Format: cell-based
Settings: n = 3
Excerpt: The enzyme activity of CNPase in hypertrophic myocardium was detected by the detection method of calf intestinal alkaline phosphatase activity.

## C[C@@]12CC[C@@H]3[C@@](CC[C@H]4[C@@]3(C)CCC[C@@]4(C)C(=O)[O-])(CC1=O)C2.[Na+] [STVNa, sodium isosteviol]
STVNa + Ang II, cardiac hypertrophy induced by Ang-II, Control 1.000, Ang-II alone 0.2266
  CNPase activity: 0.9629 ± 0.411
STVNa + Ang II, cardiac hypertrophy induced by Ang-II, Control 1.000, Ang-II alone 0.2266, listed as sodium isosteviol
  CNPase activity: enhances CNPase activity
STVNa alone, no Ang-II, Control 1.000
  CNPase activity: 0.9326 ± 0.241
